Patent US8192962B2, “Processes for detecting toxic substances” (Daikin Industries, Ltd., priority 2001, dated 2012)

Test system: Energy system protein genes
Assay: DNA chip mRNA expression in yeast, energy system protein genes (Table 4)
Assay type: cell-based, Saccharomyces cerevisiae S288C
Outline: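 Whole-genome yeast DNA chip hybridization (65° C., >12 h) of Cy-labeled cDNA from S288C cells exposed 2 h at 25° C. to a sub-lethal toxicant dose in YPD; value is intensity relative to chemical-free control.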

CN(C)C(=S)SSC(=S)N(C)C [(10), Tetramethylthiuram disulfide]
The level of expressed mRNA in the presence of chemical substance/The level of expressed mRNA in the absence of chemical substance (yeast gene YJL216C, cells incubated two hours with the chemical substance): 1.3
The level of expressed mRNA in the presence of chemical substance/The level of expressed mRNA in the absence of chemical substance (yeast gene YJR009C): 1.3
The level of expressed mRNA in the presence of chemical substance/The level of expressed mRNA in the absence of chemical substance (yeast gene YJR048W): 1.5
The level of expressed mRNA in the presence of chemical substance/The level of expressed mRNA in the absence of chemical substance (yeast gene YJR121W, cells incubated two hours with the chemical substance): 1.3
The level of expressed mRNA in the presence of chemical substance/The level of expressed mRNA in the absence of chemical substance (yeast gene YJR155W): 18.8
The level of expressed mRNA in the presence of chemical substance/The level of expressed mRNA in the absence of chemical substance (yeast gene YKL016C, cells incubated two hours with the chemical substance): 1.8
The level of expressed mRNA in the presence of chemical substance/The level of expressed mRNA in the absence of chemical substance (yeast gene YKL060C, cells incubated two hours with the chemical substance): 0.8
The level of expressed mRNA in the presence of chemical substance/The level of expressed mRNA in the absence of chemical substance (yeast gene YKL141W, cells incubated two hours with the chemical substance): 0.5
The level of expressed mRNA in the presence of chemical substance/The level of expressed mRNA in the absence of chemical substance (yeast gene YKL148C, cells incubated two hours with the chemical substance): 1.7
The level of expressed mRNA in the presence of chemical substance/The level of expressed mRNA in the absence of chemical substance (yeast gene YKR009C, cells incubated two hours with the chemical substance): 2.1
The level of expressed mRNA in the presence of chemical substance/The level of expressed mRNA in the absence of chemical substance (yeast gene YKR058W, cells incubated two hours with the chemical substance, 25° C., YPD medium): 1.2
The level of expressed mRNA in the presence of chemical substance/The level of expressed mRNA in the absence of chemical substance (yeast gene YKR097W): 3.3
The level of expressed mRNA in the presence of chemical substance/The level of expressed mRNA in the absence of chemical substance (yeast gene YLL041C, cells incubated two hours with the chemical substance): 0.8
The level of expressed mRNA in the presence of chemical substance/The level of expressed mRNA in the absence of chemical substance (yeast gene YLR038C, cells incubated two hours with the chemical substance): 0.9
The level of expressed mRNA in the presence of chemical substance/The level of expressed mRNA in the absence of chemical substance (yeast gene YLR044C, cells incubated two hours with the chemical substance): 1.2
The level of expressed mRNA in the presence of chemical substance/The level of expressed mRNA in the absence of chemical substance (yeast gene YLR134W, cells incubated two hours with the chemical substance): 0.7
The level of expressed mRNA in the presence of chemical substance/The level of expressed mRNA in the absence of chemical substance (yeast gene YLR258W, cells incubated two hours with the chemical substance): 1.3
The level of expressed mRNA in the presence of chemical substance/The level of expressed mRNA in the absence of chemical substance (yeast gene YLR284C, cells incubated two hours with the chemical substance): 0.9
The level of expressed mRNA in the presence of chemical substance/The level of expressed mRNA in the absence of chemical substance (yeast gene YLR295C, cells incubated two hours with the chemical substance, 25° C., YPD medium): 1.2
The level of expressed mRNA in the presence of chemical substance/The level of expressed mRNA in the absence of chemical substance (yeast gene YLR304C, cells incubated two hours with the chemical substance): 2.2
The level of expressed mRNA in the presence of chemical substance/The level of expressed mRNA in the absence of chemical substance (yeast gene YLR345W): 4.0
The level of expressed mRNA in the presence of chemical substance/The level of expressed mRNA in the absence of chemical substance (yeast gene YLR354C, cells incubated two hours with the chemical substance): 0.9
The level of expressed mRNA in the presence of chemical substance/The level of expressed mRNA in the absence of chemical substance (yeast gene YLR377C, cells incubated two hours with the chemical substance): 1.6
The level of expressed mRNA in the presence of chemical substance/The level of expressed mRNA in the absence of chemical substance (yeast gene YLR395C, cells incubated two hours with the chemical substance): 0.9
The level of expressed mRNA in the presence of chemical substance/The level of expressed mRNA in the absence of chemical substance (yeast gene YML087C): 4.9
The level of expressed mRNA in the presence of chemical substance/The level of expressed mRNA in the absence of chemical substance (yeast gene YML120C, cells incubated two hours with the chemical substance): 1.5
The level of expressed mRNA in the presence of chemical substance/The level of expressed mRNA in the absence of chemical substance (yeast gene YML129C, cells incubated two hours with the chemical substance): 2.2
The level of expressed mRNA in the presence of chemical substance/The level of expressed mRNA in the absence of chemical substance (yeast gene YMR073C, cells incubated two hours with the chemical substance): 1.2
The level of expressed mRNA in the presence of chemical substance/The level of expressed mRNA in the absence of chemical substance (yeast gene YMR118C): 1.4
The level of expressed mRNA in the presence of chemical substance/The level of expressed mRNA in the absence of chemical substance (yeast gene YMR205C, cells incubated two hours with the chemical substance): 0.8
The level of expressed mRNA in the presence of chemical substance/The level of expressed mRNA in the absence of chemical substance (yeast gene YMR261C, cells incubated two hours with the chemical substance): 1.3
The level of expressed mRNA in the presence of chemical substance/The level of expressed mRNA in the absence of chemical substance (yeast gene YMR267W, cells incubated two hours with the chemical substance, 25° C., YPD medium): 0.8
The level of expressed mRNA in the presence of chemical substance/The level of expressed mRNA in the absence of chemical substance (yeast gene YMR323W, cells incubated two hours with the chemical substance): 1.3
The level of expressed mRNA in the presence of chemical substance/The level of expressed mRNA in the absence of chemical substance (yeast gene YNL071W): 1.2
The level of expressed mRNA in the presence of chemical substance/The level of expressed mRNA in the absence of chemical substance (yeast gene YNL202W, cells incubated two hours with the chemical substance): 1.1
The level of expressed mRNA in the presence of chemical substance/The level of expressed mRNA in the absence of chemical substance (yeast gene YNL241C): 7.4
The level of expressed mRNA in the presence of chemical substance/The level of expressed mRNA in the absence of chemical substance (yeast gene YNL331C): 36.3
The level of expressed mRNA in the presence of chemical substance/The level of expressed mRNA in the absence of chemical substance (yeast gene YOL086C, cells incubated two hours with the chemical substance): 1.2
The level of expressed mRNA in the presence of chemical substance/The level of expressed mRNA in the absence of chemical substance (yeast gene YOL157C): 4.8
The level of expressed mRNA in the presence of chemical substance/The level of expressed mRNA in the absence of chemical substance (yeast gene YOL165C): 23.3
The level of expressed mRNA in the presence of chemical substance/The level of expressed mRNA in the absence of chemical substance (yeast gene YOR136W): 3.4
The level of expressed mRNA in the presence of chemical substance/The level of expressed mRNA in the absence of chemical substance (yeast gene YOR142W, cells incubated two hours with the chemical substance): 1.5
The level of expressed mRNA in the presence of chemical substance/The level of expressed mRNA in the absence of chemical substance (yeast gene YOR178C, cells incubated two hours with the chemical substance): 1.7
The level of expressed mRNA in the presence of chemical substance/The level of expressed mRNA in the absence of chemical substance (yeast gene YOR388C, cells incubated two hours with the chemical substance): 1.4
The level of expressed mRNA in the presence of chemical substance/The level of expressed mRNA in the absence of chemical substance (yeast gene YPL031C, cells incubated two hours with the chemical substance): 1.4
The level of expressed mRNA in the presence of chemical substance/The level of expressed mRNA in the absence of chemical substance (yeast gene YPL061W, cells incubated two hours with the chemical substance): 0.7
The level of expressed mRNA in the presence of chemical substance/The level of expressed mRNA in the absence of chemical substance (yeast gene YPL088W): 2.8
The level of expressed mRNA in the presence of chemical substance/The level of expressed mRNA in the absence of chemical substance (yeast gene YPL171C): 50.6
The level of expressed mRNA in the presence of chemical substance/The level of expressed mRNA in the absence of chemical substance (yeast gene YPL240C): 2.6
The level of expressed mRNA in the presence of chemical substance/The level of expressed mRNA in the absence of chemical substance (yeast gene YPL262W, cells incubated two hours with the chemical substance): 5.8
The level of expressed mRNA in the presence of chemical substance/The level of expressed mRNA in the absence of chemical substance (yeast gene YPL275W, cells incubated two hours with the chemical substance): 1.2
The level of expressed mRNA in the presence of chemical substance/The level of expressed mRNA in the absence of chemical substance (yeast gene YPL276W, cells incubated two hours with the chemical substance): 1.8
The level of expressed mRNA in the presence of chemical substance/The level of expressed mRNA in the absence of chemical substance (yeast gene YPR048W, cells incubated two hours with the chemical substance): 2.1
The level of expressed mRNA in the presence of chemical substance/The level of expressed mRNA in the absence of chemical substance (yeast gene YPR184W, cells incubated two hours with the chemical substance): 3.2
